PMC9495854, “Novel Phenothiazine/Donepezil-like Hybrids Endowed with Antioxidant Activity for a Multi-Target Approach to the Therapy of Alzheimer’s Disease” (Antioxidants, 2022)
Marks after values point to notes of the source that are not given here.

What was measured:
hAChE = target: T1, hAChE (Homo sapiens, UniProt P22303); test: biochemical; assay type: biochemical; conditions: mean ± SEM; for hAChE I% at 10 µM: inhibition at 10 µM
T1 construct: purchased
Description: The experiments were carried out using a properly modified version of Ellman’s spectrophotometric assay, adapted to a 96-well plate procedure. All reagents, including enzymes, were purchased from common suppliers. Incubation of the proper enzyme with the single compound at different concentrations was performed in clear flat-bottomed, 96-well plates (Greiner Bio-One GmbH, Frickenhausen, Germany) and in duplicate. […] Fluorescence measures were carried out using Tecan Infinite M1000 Pro multiplate reader (Tecan, Cernusco S.N., Italy). IC50 values and inhibition values were calculated as the mean of three independent experiments and are expressed as mean ± SEM [13].

Aβ1-40 aggregation = target: T2, Aβ1-40 aggregation (Homo sapiens, UniProt P05067); test: Inhibition of Aβ40 aggregation, ThT fluorescence; assay type: biochemical; conditions: inhibitor 10 µM, Aβ40 30 µM, PBS pH 7.4, 2% HFIP, 2 h 25 °C, mean ± SEM; for inhibition at 10 µM: read-out: Aβ1-40 Aggregation (I% at 10 µM)
T2 construct: purchased EZBiolab
T2 sequence (P05067 672-711 limits assumed): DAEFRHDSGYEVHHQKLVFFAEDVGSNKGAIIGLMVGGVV
Description: ThT fluorescence in the presence of Aβ was measured for each compound according a previously described procedure. The samples were co-incubated and mixed in 96-well black, non-binding microplates (Greiner Bio-One GmbH, Frickenhausen, Germany), incubating Aβ40 (EZBiolab, Carmel, IN, USA) at a final concentration of 30 µM with each inhibitors at a final concentration of 10 µM in PBS (pH 7.4) containing 2% 1,1,1,3,3,3-hexafluoro-2-propanol (HFIP). After 2 h at 25 °C, a 25 µM ThT solution was added and fluorescence was determined using the multi-plate reader Tecan Infinite M1000 Pro (Tecan, Cernusco S.N., Italy). The results are reported as mean of three independent experiments ± SEM [13].

HepG2 cells = test: DCFH-DA cell-based antioxidant assay (H2O2-induced oxidation), HepG2; conditions: Homo sapiens, 1 h compound, 100 μM H2O2, read-out: DCFDH-DA IC50 ± SEM HepG2
Description: (§1) HepG2 cells were cultured in Eagle’s Minimum Essential Medium (MEM, Euroclone S.p.A., Pero, MI, Italy), supplemented with 10% Fetal Bovine Serum (FBS, Euroclone S.p.A., Pero, MI, Italy), 1% L-glutamine (Euroclone S.p.A., Pero, MI, Italy), 100 U/mL penicillin/streptomycin (Euroclone S.p.A., Pero, MI, Italy), 1% Non-Essential Amino Acids (NEAA, Euroclone S.p.A., Pero, MI, Italy). SH-SY5Y cells were grown in a 1:1 mixture of Dulbecco’s modified Eagle’s medium (DMEM)—high glucose (Euroclone S.p.A., Pero, MI, Italy) and Ham’s F12 Medium (Euroclone S.p.A., Pero, MI, Italy) supplemented with 10% FBS, 1% L-glutamine and 100 U/mL penicillin/streptomycin. For cell assays, cells were trypsinized using Trypsin-EDTA 1X in PBS (Euroclone S.p.A., Pero, MI, Italy).
According to a slightly modified procedure already reported in the literature, the generation of ROS was determined using an oxidation-sensitive fluorescent probe, 2′,7′-dichlorodihydrofluorescein diacetate (DCFH-DA, D6665; Sigma-Aldrich, St. Louis, MO, USA). Briefly, viable cells were seeded in a black 96-well cell culture plate (Costar, Sigma-Aldrich, St. Louis, MO, USA) and after 24 h were incubated with different concentrations (0.1–100 µM) of each compound for 1 h at 37 °C in 5% CO2. […] After washing using PBS, 100 μM H2O2 in medium without serum was added to each well and the cells were incubated for an additional 30 min. The formation of fluorescent dichlorofluorescein (DCF) due to oxidation of DCFH in the presence of ROS, was read at 530 nm using a microplate reader Tecan Infinite M1000 Pro (Tecan, Cernusco S.N., Italy) and DMSO medium was used for control cells. The results are expressed as mean ± SEM of at least three independent measurements in triplicate.

[1] = MTT cell viability assay, SH-SY5Y; assay type: cell-based; conditions: human, SH-SY5Y cells, SHSY-5Y; for IC50 at 1 h: 1 h exposure; for IC50 at 24 h: 24 h exposure, read-out: MTT cytotoxicity IC50 ± SEM SHSY-5Y 24 h
Description: as §1, with “Human hepatocellular liver carcinoma (HepG2) cell line and human neuroblastoma cell line, SH-SY5Y, were purchased from the American Type Culture Collection (ATCC, Manassas, VA, USA) and maintained at 37 °C in a humidified atmosphere (95% air and 5% carbon dioxide), and they were periodically screened for contamination. HepG2” for “HepG2”
HepG2 and SH-SY5Y cell viability was assessed as previously reported by using a conventional 3-(4,5-dimethylthiazol-2-yl)-2,5-diphenyltetrazolium bromide (MTT) assay. In brief, viable cells were seeded and grown for 24 h into a sterile 96-well cell culture cluster (Corning, Sigma-Aldrich, St. Louis, MO, USA) in a complete medium and maintained at 37 °C in a humidified atmosphere with 5% CO2. The cells were then added with different concentrations of each compound for a period of 1 h or 24 h. At the end, the culture medium was replaced by a solution of 0.5 mg/mL MTT (Sigma-Aldrich, St. Louis, MO, USA) in PBS. After 2 h of incubation at 37 °C in 5% CO2, the supernatant was carefully removed from each well, and the formazan crystals were dissolved in DMSO. The absorbance values were measured at 570 nm using Tecan Infinite M1000 Pro (Tecan, Cernusco S.N., Italy) and DMSO medium as blank solution. The results were reported as % cell viability = [optical density (OD) of tested compound/medium OD of control cells] × 100. The results are expressed as mean ± SEM of at least three independent measurements in triplicate.

T1 sequence (P22303 32-614): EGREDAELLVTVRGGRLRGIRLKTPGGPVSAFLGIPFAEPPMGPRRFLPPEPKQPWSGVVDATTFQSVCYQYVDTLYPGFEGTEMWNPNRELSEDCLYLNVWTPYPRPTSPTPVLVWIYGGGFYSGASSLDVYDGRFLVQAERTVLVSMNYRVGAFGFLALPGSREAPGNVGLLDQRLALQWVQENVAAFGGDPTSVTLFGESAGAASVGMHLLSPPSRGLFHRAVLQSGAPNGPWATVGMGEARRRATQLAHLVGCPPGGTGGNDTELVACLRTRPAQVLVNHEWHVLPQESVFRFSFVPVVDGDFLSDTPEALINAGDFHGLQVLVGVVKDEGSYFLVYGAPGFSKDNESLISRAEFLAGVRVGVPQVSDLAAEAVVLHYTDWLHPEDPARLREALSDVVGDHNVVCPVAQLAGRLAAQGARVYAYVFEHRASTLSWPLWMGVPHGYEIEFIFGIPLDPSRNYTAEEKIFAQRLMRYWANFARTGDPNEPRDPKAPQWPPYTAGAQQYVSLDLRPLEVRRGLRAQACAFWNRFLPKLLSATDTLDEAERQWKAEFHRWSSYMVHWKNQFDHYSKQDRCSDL

Row | SMILES | IC50 (hAChE) [µM] | inhibition at 10 µM (Aβ1-40 aggregation) [%] | IC50 (HepG2 cells) [µM] | IC50 at 1 h [1] [µM] | IC50 at 24 h [1] [µM] | hAChE I% at 10 µM (hAChE) | Aβ1-40 Aggregation (I% at 10 µM) (Aβ1-40 aggregation)
1 | O=C(NCC1CCN(Cc2ccccc2F)CC1)c1ccc2c(c1)Nc1ccccc1S2 [Compound 11d, N-((1-(2-Fluorobenzyl)piperidin-4-yl)methyl)-10H-phenothiazine-2-carboxamide] | 1.75 ± 0.11 | 43 | 1.82 ± 0.6 | > 100 | 9.33 ± 0.86 |  | 
2 | O=C(NCC1CCN(Cc2ccccc2Cl)CC1)c1ccc2c(c1)Nc1ccccc1S2 [Compound 11b, N-((1-(2-Chlorobenzyl)piperidin-4-yl)methyl)-10H-phenothiazine-2-carboxamide] |  | 20 | 55.3 ± 1.1 | > 100 | 21.2 ± 1 | 52% ± 1 ^b | 
3 | O=C(NCC1CCN(Cc2ccccc2)CC1)c1ccc2c(c1)Nc1ccccc1S2 [Compound 11a, N-((1-Benzylpiperidin-4-yl)methyl)-10H-phenothiazine-2-carboxamide] | 0.597 ± 0.064 | 8 | 8.31 ± 1.4 | > 100 | > 100 |  | 
4 | CC(=O)N1c2ccccc2Sc2ccc(C(=O)NCCN3CCN(Cc4ccccc4Cl)CC3)cc21 [Compound 13, 10-Acetyl-N-(2-(4-(2-chlorobenzyl)piperazin-1-yl)ethyl)-10H-phenothiazine-2-carboxamide] |  |  | 0.63 ± 0.1 | > 100 | 55.3 ± 1.22 | 48% ± 5 ^b | lack of activity
5 | O=C(NCCN1CCN(Cc2ccccc2Cl)CC1)c1ccc2c(c1)Nc1ccccc1S2 [Compound 12b, N-(2-(4-(2-Chlorobenzyl)piperazin-1-yl)ethyl)-10H-phenothiazine-2-carboxamide] | 1.85 ± 0.15 | 27 | 18.7 ± 0.2 | > 100 | 31.8 ± 2 |  | 
6 | Cc1ccccc1CN1CCC(CNC(=O)c2ccc3c(c2)Nc2ccccc2S3)CC1 [Compound 11c, N-((1-(2-Methylbenzyl)piperidin-4-yl)methyl)-10H-phenothiazine-2-carboxamide] |  | 47 | 17.6 ± 0.5 | > 100 | 15.2 ± 1.2 | 44% ± 2 ^b | 
7 | COc1cccc(CN2CCC(CNC(=O)c3ccc4c(c3)Nc3ccccc3S4)CC2)c1 [Compound 11e, N-((1-(3-Methoxybenzyl)piperidin-4-yl)methyl)-10H-phenothiazine-2-carboxamide] |  | 24 | 3.21 ± 0.5 | > 100 | 29 ± 1.1 | 22% ± 4 ^b | 
8 | Cc1ccccc1CN1CCN(CCNC(=O)c2ccc3c(c2)Nc2ccccc2S3)CC1 [Compound 12c, N-(2-(4-(2-Methylbenzyl)piperazin-1-yl)ethyl)-10H-phenothiazine-2-carboxamide] |  |  | 4.21 ± 0.81 | > 100 | > 100 | 56% ± 3 ^b | 
9 | O=C(NCCN1CCN(Cc2ccccc2)CC1)c1ccc2c(c1)Nc1ccccc1S2 [Compound 12a, N-(2-(4-Benzylpiperazin-1-yl)ethyl)-10H-phenothiazine-2-carboxamide] | 0.943 ± 0.046 | 43 | 1.13 ± 0.41 | > 100 | > 100 |  | 
10 | O=C(NCCN1CCN(Cc2ccccc2F)CC1)c1ccc2c(c1)Nc1ccccc1S2 [Compound 12d, N-(2-(4-(2-Fluorobenzyl)piperazin-1-yl)ethyl)-10H-phenothiazine-2-carboxamide] | 0.599 ± 0.112 | 60 | 14.6 ± 0.5 | > 100 | > 100 |  | 
